Measurements published in patent publication US8273344B2, “Recombinant adeno-associated virus expressing human antisense gene CyP2J2 and its preparation methods” (priority 2004, dated 2012).
Where “and” joins values, the source holds several entries; their conditions need not be identical. Equal entries are not always repeated.

Experiments:
tumor = test: Growth of tumor under EET blocker (FIG. 16); settings: FIG. 16, 100 nmol/L
[1] = test system: Tca-8113, A549, Ncl-H446, and HepG2 cell lines; test: Migration and invasion of tumor cells in modified Boyden chamber; format: cell-based, human; settings: 5 h, P<0.01
Description: The migration of epithelial cells in the modified Boyden chamber is measured using a conventional method. A polycarbonate filter membrane of […] is coated at 4° C. for 24 h using collagen IV (10 μg/mL) and Matrigel (11 μg/filter). The Tca-8113, A549, Ncl-H446, and HepG2 cell lines are washed with DMEM culture solution to 2×10^6/mL. 200 μL of DMEM containing 5% FBS is added to the low part of the Boyden chamber as a chemoattractant, and followed by covering a polycarbonate filter membrane. 800 μL of a cell suspension is added to the upper part of the Boyden chamber, cultured at 37° C. at 5% CO2 for 5 h. The device is disassembled and the membrane is collected. The cells are cleaned off, and the membrane is fixed with carbinol and stained with hematoxylin. Five fields of vision per membrane are observed under a 200× microscope. Subsequently, the number of migrating cells is calculated.

four tumor cell lines = test: Proliferation of four kinds of tumor cells in vitro; format: cell-based, human; settings: FIG. 15, dose dependence
Description: The epoxygenase metabolizes arachidonic acid to yield endogenous epoxyeicosatrienoic acids. Thus, the EETs concentration is increased indirectly. This can directly verity that the function of CYP epoxygenase for promoting proliferation of tumor cells.

[2] = test system: four different kinds of tumor cell lines; test: TNFα-induced apoptosis of tumor cells (DNA ladder, acridine orange staining, flow cytometry); format: cell-based, human; settings: for total apoptotic rate: flow cytometry; for number of apoptotic cells (acridine orange / ethidium bromide staining): fluorescent microscope, vs control group
Description: A week later, TNFα is used to induce the apoptosis of tumor cells. The apoptosis is measured using different methods. […] Thus, the EETs and epoxygenase gene resist the apoptosis of cancer cells induced by TNF-α. After PI staining and Annexin V-FITC/PI dobule staining separatively, the total apoptosis rate and early apoptosis rate of cells are calculated using flow cytometry.

transplantation tumor = test: Growth of transplantation tumor under epoxygenase inhibitor (FIG. 17); format: in vivo; settings: FIG. 17, without joint use of 5-fluorouracil
Akt, Bcl-2, Bcl-xL, Bax = format: cell-based
[3] = EET pretreatment experiment, control 28.15%±4.7

| Compound | growth of tumor (tumor) | ability of migrating of cells relative to basal state [1] | growth of tumor cells (four tumor cell lines) | total apoptotic rate [2, 3] | number of apoptotic cells (acridine orange / ethidium bromide staining) [2] | apoptosis of tumor cells (in words) ([2]; induced by TNF-α) | total apoptotic rate ([2]; transfection experiment, control 20.15%±3.5) | growth of transplantation tumor (transplantation tumor) | expression of antiapoptosis protein Bcl-2 and Bcl-xL (Akt, Bcl-2, Bcl-xL, Bax) | expression of apoptosis protein Bax (Akt, Bcl-2, Bcl-xL, Bax) | phosphorylation of Akt (Akt, Bcl-2, Bcl-xL, Bax) | formation of DNA ladder ([2]; TNFα-induced apoptosis) |
| --- | --- | --- | --- | --- | --- | --- | --- | --- | --- | --- | --- | --- |
| CCCCCC1OC1C/C=C\C/C=C\C/C=C\CCCC(=O)O (centres unmarked) [14, 15-EET] | can inhibit |  |  |  |  |  |  |  |  |  |  |  |
| C#CCCCCCCCCCCCCCCCC(=O)O [17-ODYA] |  | about 60 % of basal state | dose-dependently inhibits | 52.65%±3.6 | large | promotes significantly | 33.51%±6.1 | can inhibit | completely opposite effect | completely opposite effect | completely opposite effect |  |
| epoxyeicosatrienoic acids [EETs] |  |  |  | 14.94%±3.5 and 11.72%±4.2 and 12.89%±2.7 | significantly less |  |  |  | increase | decrease | promote | decrease significantly |
